Assay [1] concerns RAW264.7. Nature of the assay: Antiinflammatory activity in LPS-stimulated mouse RAW264.7 cells assessed as reduction in iNOS protein expression at 10 uM by immunoblot analysis relative to control. Format: functional. Details: scale not given: the % may be the effect or the level left. On the technique in general: In western blotting, separated proteins are transferred to a membrane and probed.

The subject of assay [2] is RAW264.7. Nature of the assay: Antiinflammatory activity in LPS-stimulated mouse RAW264.7 cells assessed as reduction in COX2 protein expression at 10 uM by immunoblot analysis. Format: functional. Also noted: scale not given: the % may be the effect or the level left.
For a further assay, the system named is Salmonella enteritidis. The assay can be described thus: Antibacterial activity against Salmonella enteritidis ATCC 13076 at 100 ug/disk. The note with it: Salmonella enterica subsp. enterica serovar Enteritidis. Format: functional, organism-based.
In a further assay the test system is Human betaherpesvirus 5. Nature of the assay: Inhibition of HCMV endonuclease at 1 mg/mL.

Each structure is given as a SMILES string. Active and inactive are the calls of the source. No cut-off for these calls is given here.

Experimental findings from ChEMBL document CHEMBL1151819, “Unprecedented hemiketal cembranolides with anti-inflammatory activity from the soft coral Lobophytum durum” (2009) are described below.

Consider `C=C1C(=O)O[C@H]2C[C@H]1[C@]1(O)C/C(C)=C/CC/C(C)=C/CC[C@]2(COC(C)=O)O1` (relative stereo) [DURUMHEMIKETALOLIDE C], for which the Activity turned out to be 0% with RAW264.7 [1] and 34.7% in the assay on RAW264.7 [2]. The outcome in the assay with Salmonella enteritidis and in the assay on Human betaherpesvirus 5 was inactive.

In the case of `C=C1C(=O)O[C@@H]2C[C@H]1[C@]1(O)C/C(C)=C/CC/C(C)=C/CC[C@@]2(CO)O1` (relative stereo) [DURUMHEMIKETALOLIDE A], the values for the Activity in the assay on RAW264.7 [1] and in the assay on RAW264.7 [2] were 11% and 66.7%, respectively. The outcome in the assay on Salmonella enteritidis and in the assay on Human betaherpesvirus 5 was inactive.

Regarding `O=C(/C=C/c1ccc(O)c(O)c1)OCCc1ccccc1` [CAFFEIC ACID PHENETHYL ESTER], the Activity was 1.5% with RAW264.7 [1] and 70.2% in the assay on RAW264.7 [2].

For the compound `C=C1C(=O)O[C@H]2C[C@H]1[C@]1(O)C/C(C)=C/CC/C(C)=C/CC[C@@]2(COC(C)=O)O1` (relative stereo) [DURUMHEMIKETALOLIDE B], the Activity in the assay on RAW264.7 [1] was 6.4%. In addition, the result in the assay on RAW264.7 [2], in the assay on Salmonella enteritidis and with Human betaherpesvirus 5 was inactive.
